Data reported in patent US10131652B2, “Pyrimidinyloxy benzene derivatives as herbicides” (E. I. DU PONT DE NEMOURS AND COMPANY, priority 2014, dated 2018).

Experiments:
Assay in all cases: Test F pre-/postemergence plant response
Assay type in all cases: in vivo
Conditions in all cases: scale 0 to 100
corn (Zea mays) = system: corn (Zea mays)
How it was run: (§1)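 Plant response is a visual score from 0, meaning no effect, to 100, meaning complete control, assigned by comparison with untreated plants. Ratings were made 14 to 21 days after preemergence application to seeded silt loam or postemergence application to plants at the 1- to 4-leaf stage.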

[1] = system: velvetleaf (Abutilon theophrasti)
How it was run: as §1

[2] = system: hairy beggarticks (Bidens pilosa)
How it was run: as §1

[3] = system: yellow nutsedge (Cyperus esculentus)
How it was run: as §1

[4] = system: nightshade (eastern black nightshade, Solanum ptycanthum)
How it was run: as §1

[5] = system: wild poinsettia (Euphorbia heterophylla)
How it was run: as §1

[6] = system: field bindweed (Convolvulus arvensis)
How it was run: as §1

kochia (Kochia scoparia) = system: kochia (Kochia scoparia)
How it was run: as §1

[7] = system: fall panicum (Panicum dichotomiflorum)
How it was run: as §1

[8] = system: ragweed (common ragweed, Ambrosia elatior)
How it was run: as §1

[9] = system: waterhemp (common waterhemp, Amaranthus rudis)
How it was run: as §1

[10] = system: arrowleaf sida (Sida rhombifolia)
How it was run: as §1

[11] = system: green foxtail (Setaria viridis)
How it was run: as §1

[12] = system: goosegrass (Eleusine indica)
How it was run: as §1

[13] = system: palmer pigweed (Amaranthus palmeri)
How it was run: as §1

[14] = system: johnsongrass (Sorghum halepense)
How it was run: as §1

SMILES: Fc1ccc(Oc2ncc(Cl)cn2)c(-c2cc(C(F)F)on2)c1Cl [Compound 96]
- Plant response rating, Corn (corn (Zea mays); 16 g ai/ha Postemergence): 0
- Plant response rating, Corn (corn (Zea mays); 16 g ai/ha Preemergence): 0
- Plant response rating, Corn (corn (Zea mays); 31 g ai/ha Postemergence): 5
- Plant response rating, Corn (corn (Zea mays); 31 g ai/ha Preemergence): 0
- Plant response rating, Corn (corn (Zea mays); 62 g ai/ha Postemergence): 10
- Plant response rating, Corn (corn (Zea mays); 62 g ai/ha Preemergence): 0
- Plant response rating, Corn (corn (Zea mays); 125 g ai/ha Postemergence): 10
- Plant response rating, Corn (corn (Zea mays); 125 g ai/ha Preemergence): 0
- Plant response rating, Velvetleaf ([1]; 16 g ai/ha Preemergence): 0
- Plant response rating, Velvetleaf ([1]; 31 g ai/ha Preemergence): 60
- Plant response rating, Velvetleaf ([1]; 125 g ai/ha Preemergence): 80
- Plant response rating, Velvetleaf ([1]; Preemergence): 80
- Plant response rating, Beggarticks ([2]; 16 g ai/ha Postemergence): 0
- Plant response rating, Beggarticks ([2]; 16 g ai/ha Preemergence): 0
- Plant response rating, Beggarticks ([2]; 31 g ai/ha Postemergence): 30
- Plant response rating, Beggarticks ([2]; 31 g ai/ha Preemergence): 0
- Plant response rating, Beggarticks ([2]; 62 g ai/ha Postemergence): 40
- Plant response rating, Beggarticks ([2]; 62 g ai/ha Preemergence): 0
- Plant response rating, Beggarticks ([2]; 125 g ai/ha Postemergence): 40
- Plant response rating, Beggarticks ([2]; 125 g ai/ha Preemergence): 20
- Plant response rating, Nutsedge, Yellow ([3]; 16 g ai/ha Preemergence): 0
- Plant response rating, Nutsedge, Yellow ([3]; 31 g ai/ha Preemergence): 0
- Plant response rating, Nutsedge, Yellow ([3]; 125 g ai/ha Preemergence): 0
- Plant response rating, Nutsedge, Yellow ([3]; Preemergence): 0
- Plant response rating, Nightshade ([4]; 16 g ai/ha Preemergence): 0
- Plant response rating, Nightshade ([4]; 31 g ai/ha Preemergence): 0
- Plant response rating, Nightshade ([4]; 125 g ai/ha Preemergence): 90
- Plant response rating, Nightshade ([4]; Preemergence): 65
- Plant response rating, Poinsettia, Wild ([5]; 16 g ai/ha Postemergence): 0
- Plant response rating, Poinsettia, Wild ([5]; 16 g ai/ha Preemergence): 0
- Plant response rating, Poinsettia, Wild ([5]; 31 g ai/ha Postemergence): 30
- Plant response rating, Poinsettia, Wild ([5]; 31 g ai/ha Preemergence): 0
- Plant response rating, Poinsettia, Wild ([5]; 62 g ai/ha Postemergence): 60
- Plant response rating, Poinsettia, Wild ([5]; 125 g ai/ha Postemergence): 50
- Plant response rating, Poinsettia, Wild ([5]; 125 g ai/ha Preemergence): 25
- Plant response rating, Poinsettia, Wild ([5]; Preemergence): 0
- Plant response rating, Field Bindweed ([6]; 16 g ai/ha Postemergence): 5
- Plant response rating, Field Bindweed ([6]; 16 g ai/ha Preemergence): 0
- Plant response rating, Field Bindweed ([6]; 31 g ai/ha Postemergence): 10
- Plant response rating, Field Bindweed ([6]; 31 g ai/ha Preemergence): 0
- Plant response rating, Field Bindweed ([6]; 62 g ai/ha Postemergence): 20
- Plant response rating, Field Bindweed ([6]; 62 g ai/ha Preemergence): 60
- Plant response rating, Field Bindweed ([6]; 125 g ai/ha Postemergence): 50
- Plant response rating, Field Bindweed ([6]; 125 g ai/ha Preemergence): 40
- Plant response rating, Kochia (kochia (Kochia scoparia); 16 g ai/ha Postemergence): 65
- Plant response rating, Kochia (kochia (Kochia scoparia); 16 g ai/ha Preemergence): 0
- Plant response rating, Kochia (kochia (Kochia scoparia); 31 g ai/ha Postemergence): 75
- Plant response rating, Kochia (kochia (Kochia scoparia); 31 g ai/ha Preemergence): 0
- Plant response rating, Kochia (kochia (Kochia scoparia); 62 g ai/ha Postemergence): 75
- Plant response rating, Kochia (kochia (Kochia scoparia); 125 g ai/ha Postemergence): 95
- Plant response rating, Kochia (kochia (Kochia scoparia); 125 g ai/ha Preemergence): 90
- Plant response rating, Kochia (kochia (Kochia scoparia); Preemergence): 65
- Plant response rating, Panicum, Fall ([7]; 16 g ai/ha Postemergence): 0
- Plant response rating, Panicum, Fall ([7]; 31 g ai/ha Postemergence): 15
- Plant response rating, Panicum, Fall ([7]; 31 g ai/ha Preemergence): 40
- Plant response rating, Panicum, Fall ([7]; 62 g ai/ha Postemergence): 10
- Plant response rating, Panicum, Fall ([7]; 125 g ai/ha Postemergence): 25
- Plant response rating, Panicum, Fall ([7]; 125 g ai/ha Preemergence): 70
- Plant response rating, Panicum, Fall ([7]; Preemergence): 50
- Plant response rating, Ragweed ([8]; 16 g ai/ha Postemergence): 15
- Plant response rating, Ragweed ([8]; 16 g ai/ha Preemergence): 0
- Plant response rating, Ragweed ([8]; 31 g ai/ha Postemergence): 20
- Plant response rating, Ragweed ([8]; 31 g ai/ha Preemergence): 20
- Plant response rating, Ragweed ([8]; 62 g ai/ha Postemergence): 20
- Plant response rating, Ragweed ([8]; 125 g ai/ha Postemergence): 40
- Plant response rating, Ragweed ([8]; 125 g ai/ha Preemergence): 35
- Plant response rating, Ragweed ([8]; Preemergence): 50
- Plant response rating, Waterhemp ([9]; 16 g ai/ha Postemergence): 75
- Plant response rating, Waterhemp ([9]; 16 g ai/ha Preemergence): 40
- Plant response rating, Waterhemp ([9]; 31 g ai/ha Postemergence): 90
- Plant response rating, Waterhemp ([9]; 31 g ai/ha Preemergence): 100
- Plant response rating, Waterhemp ([9]; 62 g ai/ha Postemergence): 100
- Plant response rating, Waterhemp ([9]; 125 g ai/ha Postemergence): 95
- Plant response rating, Waterhemp ([9]; 125 g ai/ha Preemergence): 100
- Plant response rating, Waterhemp ([9]; Preemergence): 100
- Plant response rating, Arrowleaf Sida ([10]; 16 g ai/ha Postemergence): 70
- Plant response rating, Arrowleaf Sida ([10]; 16 g ai/ha Preemergence): 50
- Plant response rating, Arrowleaf Sida ([10]; 31 g ai/ha Postemergence): 80
- Plant response rating, Arrowleaf Sida ([10]; 31 g ai/ha Preemergence): 70
- Plant response rating, Arrowleaf Sida ([10]; 62 g ai/ha Postemergence): 90
- Plant response rating, Arrowleaf Sida ([10]; 62 g ai/ha Preemergence): 80
- Plant response rating, Arrowleaf Sida ([10]; 125 g ai/ha Postemergence): 95
- Plant response rating, Arrowleaf Sida ([10]; 125 g ai/ha Preemergence): 90
- Plant response rating, Foxtail, Green ([11]; 16 g ai/ha Preemergence): 25
- Plant response rating, Foxtail, Green ([11]; 31 g ai/ha Preemergence): 30
- Plant response rating, Foxtail, Green ([11]; 125 g ai/ha Preemergence): 25
- Plant response rating, Foxtail, Green ([11]; Preemergence): 35
- Plant response rating, Goosegrass ([12]; 16 g ai/ha Preemergence): 50
- Plant response rating, Goosegrass ([12]; 31 g ai/ha Preemergence): 40
- Plant response rating, Goosegrass ([12]; 125 g ai/ha Preemergence): 60
- Plant response rating, Goosegrass ([12]; Preemergence): 40
- Plant response rating, Pigweed, Palmer ([13]; 16 g ai/ha Postemergence): 70
- Plant response rating, Pigweed, Palmer ([13]; 16 g ai/ha Preemergence): 80
- Plant response rating, Pigweed, Palmer ([13]; 31 g ai/ha Postemergence): 80
- Plant response rating, Pigweed, Palmer ([13]; 31 g ai/ha Preemergence): 98
- Plant response rating, Pigweed, Palmer ([13]; 62 g ai/ha Postemergence): 95
- Plant response rating, Pigweed, Palmer ([13]; 125 g ai/ha Postemergence): 90
- Plant response rating, Pigweed, Palmer ([13]; 125 g ai/ha Preemergence): 100
- Plant response rating, Pigweed, Palmer ([13]; Preemergence): 100
- Plant response rating, Johnsongrass ([14]; 16 g ai/ha Preemergence): 20
- Plant response rating, Johnsongrass ([14]; 31 g ai/ha Preemergence): 60
- Plant response rating, Johnsongrass ([14]; 125 g ai/ha Preemergence): 98
- Plant response rating, Johnsongrass ([14]; Preemergence): 50
